Measured values as given in US11534457B2, “Use of dextran sulfate” (priority 2017, dated 2022).

Tested on: human Schwann cells
Assay: Gene expression array and pathway analysis, Schwann cells
Assay type: cell-based
Protocol: For each cell line, n=8×25 cm^2 culture flasks were set up. Two flasks were harvested for each cell type on the day of treatment (24 hours after seeding). This represents the Day0 time point. From the remaining flasks, three flasks were treated with Control Medium and three were treated with Culture Medium (CM) containing LMW-DS to give a final concentration of 0.01 mg/ml. Cells from the treated flasks were collected after 48 hours. Therefore the collected data represent (a) untreated cells (Day0 Controls and Day2 Controls) and (b) cells treated with LMW-DS for 48 hours (Day2 LMW-DS treated).
25 cm^2 flasks were coated by adding 2 ml per flask of a solution of 50 μg/ml poly-d-lysine in Hank's balanced salt solution (HBSS) and incubating overnight at 37° C. in the dark. Flasks were washed with cell culture water and air-dried for 30 min in the dark. Flasks were coated by adding 1 ml per flask of a solution of 25 μg/ml laminin in phosphate-buffered saline (PBS) and incubating for 2 hour at 37° C. in the dark. The laminin flasks were washed with PBS three times before plating cells.
Schwann cells growth medium was prepared by adding 10% of fetal bovine serum (FBS) to high-glucose DMEM and pre-warmed to 37° C. Cells were thawed in a 37° C. water bath for no longer than 2 min.
Cells from 12 vials were each gently transferred to a tube containing 10 ml of high-glucose DMEM medium and centrifuged at 400 relative centrifugal field (RCF) for 10 min. Pellet was resuspended in culture medium. The cells from the 12 vials were mixed and distributed equally into the previously coated 25 cm^2 flasks (n=8). Cells were incubated at 37° C. with 5% CO2. Cells were allowed to settle for 24 hours before LMW-DS treatment.
LMW-DS was provided at a stock concentration of 20 mg/ml and was kept in a temperature monitored refrigerator at 4° C. A fresh […]LMW-DS stock (1.0 mg/ml) was prepared in sterile DMEM-F12. The concentrated drug stock was sterile filtered and added to the respective culture media (19.6 ml CM and 0.4 ml LMW-DS stock solution). The Control was made using 19.6 ml CM and 0.4 ml of DMEM-F12. LMW-DS and CM were added to the respective flasks (5 ml each) to reach the 0.01 mg/ml concentration of LMW-DS in each dish with a total of 10 ml CM each.
CM was aspirated into a clean and labelled 15 ml Falcon tube. The flasks (without culture medium) were placed into the −80° C. freezer for 30 minutes. The CM in the Falcon tubes were spun at 3000×g for 5 minutes. Supernatant was removed and the small pellet was re-suspended in 2.5 ml Trizol:Water (4:1) solution at room temperature (RT, […]).
Two aliquots of 1 ml lysate was removed from each sample and 200 μl of chloroform was added to each (0.2 ml of chloroform per 1 ml of TRIzol Reagent used during the cell lysis step) and the tube was shaken vigorously. Samples were stored at RT for 2-3 minutes and subsequently centrifuged at 12,000×g for 15 minutes at 4° C.
The expression data were downloaded into separate files for each cell line. The ‘Background corrected’ expression is the data from the “gProcessedSignal” of the arrays that is the result of the background signal extracted from the actual signal of the relevant probe. This is the most often used variable in array analysis. The background corrected signal was log 2 transformed for all samples for statistical analysis. To reduce the false discovery rate in the samples, the signals that were below ‘expression level’ were removed. The ‘below expression’ level was set at 5 for the log 2 transformed expression values.
Based on the expression pattern of the Control probes on each array it was decided to carry out Median Centering for all arrays before analysis to reduce the variability of the results. […]

low molecular weight dextran sulfate [LMW-DS]
Complex III (cytochrome bc1), mitochondrial oxidative stress pathway (0.01 mg/ml, 48 h): inhibited
TGFβ-induced effect in adhesion of immune cells, activation and aggregation of cells, fibrosis, self-activation of TGFβ (0.01 mg/ml, 48 h): totally abolished
activity and/or levels of glutamate transporters, in particular SLC1A2/3 (0.01 mg/ml, 48 h): increased
aggregate effect on pathways regulating cell movement and attachment (17 molecules) (0.01 mg/ml, 48 h): cell adhesion would be inhibited while cell movement would be activated
cellular attachment from attachment-related molecules (17 differentially expressed) (0.01 mg/ml, 48 h): overall slightly increased attachment
expression of protein complex (CALM, Gβγ, GRM7, PICK1) (0.01 mg/ml, 48 h): induced the expression
number of genes differentially expressed, D0 control vs D2 LMW-DS treated (0.01 mg/ml, 48 h): 1244 genes
number of genes differentially expressed, D2 control vs D2 LMW-DS treated (0.01 mg/ml, 48 h): 700 genes
number of genes: abolished nutrient effect / no effect (0.01 mg/ml, 48 h): 21
number of genes: abolished nutrient effect / significant downregulation (0.01 mg/ml, 48 h): 1
number of genes: abolished nutrient effect / significant upregulation (0.01 mg/ml, 48 h): 13
number of genes: abolished nutrient effect / total (0.01 mg/ml, 48 h): 35
number of genes: enhanced response to nutrients / significant downregulation (0.01 mg/ml, 48 h): 122
number of genes: enhanced response to nutrients / significant upregulation (0.01 mg/ml, 48 h): 441
number of genes: enhanced response to nutrients / total (0.01 mg/ml, 48 h): 563
number of genes: new effect induced by LMW-DS / significant downregulation (0.01 mg/ml, 48 h): 352
number of genes: new effect induced by LMW-DS / significant upregulation (0.01 mg/ml, 48 h): 74
number of genes: new effect induced by LMW-DS / total (0.01 mg/ml, 48 h): 426
number of genes: not different from control / significant downregulation (0.01 mg/ml, 48 h): 42
number of genes: not different from control / significant upregulation (0.01 mg/ml, 48 h): 373
number of genes: not different from control / total (0.01 mg/ml, 48 h): 415
number of genes: total / no effect (0.01 mg/ml, 48 h): 21
number of genes: total / significant downregulation (0.01 mg/ml, 48 h): 517
number of genes: total / significant upregulation (0.01 mg/ml, 48 h): 901
number of genes: total / total (0.01 mg/ml, 48 h): 1439
upstream regulator ANGPT2: activation z-score (D2 LMW-DS treatment): 1.283
upstream regulator ANGPT2: predicted activation state relative D2 control (D2 LMW-DS treatment): Activated
upstream regulator BMP2: activation z-score (D2 LMW-DS treatment): 1.395
upstream regulator BMP2: predicted activation state relative D2 control (D2 LMW-DS treatment): Activated
upstream regulator BMP4: activation z-score (D2 LMW-DS treatment): 0.927
upstream regulator BMP4: predicted activation state relative D2 control (D2 LMW-DS treatment): Activated
upstream regulator BMP7: activation z-score (D2 LMW-DS treatment): 1.86
upstream regulator BMP7: predicted activation state relative D2 control (D2 LMW-DS treatment): Activated
upstream regulator EGF: activation z-score (D2 LMW-DS treatment): 2.059
upstream regulator EGF: predicted activation state relative D2 control (D2 LMW-DS treatment): Activated
upstream regulator FGF2: activation z-score (D2 LMW-DS treatment): 2.37
upstream regulator FGF2: predicted activation state relative D2 control (D2 LMW-DS treatment): Activated
upstream regulator GDF2: activation z-score (D2 LMW-DS treatment): 2.561
upstream regulator GDF2: predicted activation state relative D2 control (D2 LMW-DS treatment): Activated
upstream regulator HGF: activation z-score (D2 LMW-DS treatment): 1.432
upstream regulator HGF: predicted activation state relative D2 control (D2 LMW-DS treatment): Activated
upstream regulator IGF1: activation z-score (D2 LMW-DS treatment): 1.332
upstream regulator IGF1: predicted activation state relative D2 control (D2 LMW-DS treatment): Activated
upstream regulator NRG1: activation z-score (D2 LMW-DS treatment): 1.768
upstream regulator NRG1: predicted activation state relative D2 control (D2 LMW-DS treatment): Activated
upstream regulator NRTN: activation z-score (D2 LMW-DS treatment): 0.958
upstream regulator NRTN: predicted activation state relative D2 control (D2 LMW-DS treatment): Activated
upstream regulator PGF: activation z-score (D2 LMW-DS treatment): 0.254
upstream regulator PGF: predicted activation state relative D2 control (D2 LMW-DS treatment): Activated
upstream regulator TGFβ1: activation z-score (D2 LMW-DS treatment): 1.05
upstream regulator TGFβ1: predicted activation state relative D2 control (D2 LMW-DS treatment): Less inhibited
upstream regulator VEGFA: activation z-score (D2 LMW-DS treatment): 3.4
upstream regulator VEGFA: predicted activation state relative D2 control (D2 LMW-DS treatment): Activated
upstream regulator WISP2: activation z-score (D2 LMW-DS treatment): -0.896
upstream regulator WISP2: predicted activation state relative D2 control (D2 LMW-DS treatment): Less inhibited
